Test results taken from patent publication US20250367283A1, “MEVALONATE PATHWAY INHIBITOR AS HIGHLY-EFFICIENT VACCINE ADJUVANT” (Tsinghua University, priority 2015, published 2025).
Like-named read-outs stand apart in the source and are kept apart here.

Key:
[1] = system: anti-OVA IgM and IgG antibodies; assay: OVA evaluation system: adjuvant activity in antibody titer in mice; assay type: in vivo; details: for IgM and IgG antibody titers vs PBS or DMSO control / adjuvant effect among statin drugs: statins with OVA, soles injection; for IgM and IgG antibody titers vs PBS or DMSO control: Day 7 and Day 14
Description: OVA evaluation system was used to determine adjuvant activity in antibody titer.
Mice of C57B/6 strain were used. The mice in the experimental group were injected with the obtained mixture of each of the statins and OVA antigen through soles injection, with 20 μl for each mouse. The mice in the control group were injected with a 1:1 mixture of PBS or DMSO (10 μl) and 10 μl OVA antigen (PBS or DMSO is 10 μl, respectively, and the antigen is 10 μl) through soles injection, with 20 μl for each mouse. On Day 7 and Day 14 after immunization, blood was taken from the mice's orbits, with 100 μl was taken from each mouse. The obtained blood was left at 4° C. overnight, and centrifuged at 6000 rpm for 8 min. The supernatant serum was removed and the titers of anti-OVA IgM and IgG antibodies in the serum were determined.
Test of the OVA antibody titer: The OVA protein was diluted to a concentration of 2 μg/ml with a carbonate solution of pH 9.6, coated in a 96-well ELISA plate at 50 μl per well, and left at 4° C. overnight. The ELISA plate was washed five times with PBS containing 0.05% Tween 20, blocked with 1% BSA solution at 200 μl per well, and incubated at room temperature for 2 h. The ELISA plate was washed five times with PBST (Phosphate Buffered Saline with Tween), a 2-fold serial dilution of the mouse serum after immunized with OVA was added at 50 μl per well and incubated at room temperature for 2 h. After the ELISA plate was washed five times with PBST, HRP (horseradish peroxidase)-labeled goat-anti-mouse IgM or IgG antibody was added and incubated at room temperature for 45 min. The ELISA plate was washed five times with PBST, and a color developing solution of sodium citrate OPD (o-phenylenediamine) was added. After 10 min of color development in the dark, sulfuric acid was added to terminate the reaction. The reading was performed with ELIASA OD490. The maximum serum dilution factor, when the ratio of light absorptions of the experimental group to the control group was >2.0, was the titer of the anti-OVA antibody in the serum.
Each test compound was formulated at a concentration of 2 mg/ml and the concentration of OVA antigen was 2 mg/ml. Each compound was mixed with OVA at 1:1. Each C57B/6 mouse in the experimental group was injected with 100 μl of the mixture (containing 50 μl of the antigen and 50 μl of the compound) by intramuscular injection at the right thigh. On Day 7 and Day 14 after immunization, blood was taken from the mice's orbit, and 100 μl was taken for each mouse. The obtained blood was allowed to stand at 4° C. overnight, and centrifuged at 6000 rpm for 8 min. The supernatant serum was removed, and the titers of anti-OVA IgM and IgG antibodies in the serum were determined.
Method: each of the test compounds (the 10 bisphosphonates as described above) was mixed with the OVE antigen at 1:1, and the concentrations of bisphosphonic acid and OVA were both 10 mg/ml. Mice of C57B/6 strain were used. The mice in the experimental group were injected with the mixture of each of the test compounds and OVA antigen through soles injection, with 20 μl for each mouse, and wherein the amounts of OVA antigen and each of the test compounds were both 100 ug. The mice in the control group were injected with a 1:1 mixture of […] and 10 μl OVA antigen through sole injection. On Day 7 and Day 14 after immunization, blood was taken from the mice's orbits, and 100 μl was taken from each mouse.
The obtained blood was left at 4° C. overnight, and centrifuged at 6000 rpm for 8 min. The supernatant serum was removed, and the titers of anti-OVA IgM and IgG antibodies in the serum were determined.
Method: TH-Z144 and TH-Z145 were prepared at the concentration of 10 mg/ml, the concentration of OVA antigen was also 10 mg/ml, and the compound and the antigen were mixed at 1:1. Mice of C57B/6 strain were used.

[2] = system: Plasmodium falciparum 3D7; assay: Test of plasmodium activity (SYBR-GREEN1); assay type: cell-based; details: infected erythrocytes, 72 hours; read-out: Malaria (IC50/μM)
Description: Plasmodium falciparum 3D7 was cultured with […] medium mixed with 10% human O-type blood serum and 25 mM HEPES. The cultivation process was maintained in a carbon dioxide incubator under 5% carbon dioxide. In vitro drug testing experiments were performed on a 96-well plate. The test drug was dissolved in PBS and pre-diluted with complete medium. Infected erythrocytes were cultured in triplicate for 72 hours in 3-fold serial dilutions of drug. Then an equal amount of SYBR-GREEN1 was added to each well. The detection was then performed at 485 nm for excitation light and 538 nm for emitted light. […] ORIGIN 8.0 software was used to plot and fit.

[3] = system: PvGGPPS (geranylgeranyl pyrophosphate synthase from Plasmodium); assay: In vitro PvGGPPS enzymatic activity assay; assay type: biochemical; details: GPP and IPP substrates
Description: PvGGPPs with 6 consecutive His at the N-terminus was induced to express in vitro, collected, and purified by Ni column. In vitro PvGGPPs enzymatic activity assay was performed in a 96-well plate at 200 μl of solution per well. The buffer of the system was 25 mM HEPES, 2.5 mM MgCl2, pH 7.4. Using GPP and IPP as reaction substrates, a 360 nm continuous spectrophotometric detection was performed in a phosphate lyase system. ORIGIN 8.0 software was used to plot and fit.

[4] = biological target: humanized farnesyl pyrophosphate synthase (HsFPPS) (Homo sapiens (Human), UniProt P14324); assay: In vitro HsFPPS enzyme activity assay; assay type: biochemical
Description: The measurement method is briefly described as follows: the expression of HsFPPS with 6 consecutive His at the N-terminus was induced in vitro, collected, and purified by Ni column. An in vitro HsFPPS enzyme activity assay was performed in a 96-well plate with 200 μl of solution per well. The buffer of the system was 25 mM HEPES, 2.5 mM MgCl2, pH 7.4. Using DMAPP and IPP as reaction substrates, the change of the UV value at a wavelength of 360 nm was monitored in real time in a phosphate lyase system. The ORIGIN 8.0 software was used to plot and fit. The IC50 values for the inhibition of FPPS by the TH-Z80 series of compounds were shown in the following table, in micromoles per liter (μM).
HsFPPs with 6 consecutive His at the N-terminus was induced to express in vitro, collected, and purified by Ni column. In vitro HsFPPs enzymatic activity assay was performed in a 96-well plate at 200 μl of solution per well. The buffer of the system was 25 mM HEPES, 2.5 mM MgCl2, pH 7.4. Using DMAPP and IPP as reaction substrates, the changes of UV at 360 nm were monitored in real-time in phosphate lyase system. ORIGIN 8.0 software was used to plot and fit.

MDA-MB-231 cells = assay: MDA-MB-231 proliferation MTT test; assay type: cell-based, human; details: 72 hours
Description: • Drug dissolution: […] The prepared bisphosphonate stock solution was diluted with DMEM complete medium. The maximum concentration was 1 mM. The dilution was performed serially in a ratio of 1:3.2 with a total of 11 concentration gradients; a. MDA-MB-231 cells were digested the day before. Centrifugation was performed at 1000 rmp for 3 min. The cells were counted. The cells were seeded into a 96-well plate at 3000 cells/well in a volume of 100 μl per well and cultured for 14-16 h. It should be noted that the cell count should be accurate, and the amount of cells seeded per well should be consistent. The cell suspension can be gently shaken in the intermittence of plating, or a row of cells were plated and the cell suspension was pipetted gently with a pipette. The speed of pipetting into the 96-well plate with a pipette should not be too fast or too slow, in order to avoid uneven distribution of cells in the plate, affecting the experiments; the wells at the fringe of the 96-well plate will evaporate slightly faster and the concentration of the solution will change slightly faster. Under normal situation, the central 60 wells should be selected for stimulation. Also, the pipetted liquid should be prevented from creating bubbles. b. After the cells had adhered, the liquid in the 96-well plate was pipetted out and discarded. […] c. 72 hours after the action of drug, the prepared MTT solution (immediately before use, a certain amount of MTT powder was weighed and dissolved in PBS at 5 mg/ml, under dark, filter with 0.22 filter membrane) was added directly to each well with 20 μl per well and continued to culture for 4 hours; d. The filter paper (which can be replaced by an absorbent paper) was laid, and the plate was inverted gently (be careful to prevent the crystal in the well from dropping). After the liquid in the wells was removed, 150 μl of DMSO was added to dissolve the crystals, and the mixture was shaken thoroughly with a shaker for a period of time just to dissolve the crystals. The absorbance (OD value) of each well was measured at 570 nm with ELIASA. The mean value of blank control was calculated as OD Blank. OD value for each well=OD measured-OD Blank. ODNT mean value was calculated. […] Mean and standard error were then calculated. The mean and standard error of each group of drug concentration (uM) and corresponding drug inhibition rate were fitted by Graph Prism software to obtain the IC50 of the drug.

[5] = Example 15 table, read-out: HsFPPS (IC50/μM)
[6] = TH-Z80 series, DMAPP and IPP substrates, pH 7.4, read-out: IC50 for inhibition of FPPS
[7] = o-aminopyridine bisphosphonic acid compounds, read-out: IC50 (inhibition of FPPS)

Sequence of humanized farnesyl pyrophosphate synthase (HsFPPS) (P14324 whole entry, looked up): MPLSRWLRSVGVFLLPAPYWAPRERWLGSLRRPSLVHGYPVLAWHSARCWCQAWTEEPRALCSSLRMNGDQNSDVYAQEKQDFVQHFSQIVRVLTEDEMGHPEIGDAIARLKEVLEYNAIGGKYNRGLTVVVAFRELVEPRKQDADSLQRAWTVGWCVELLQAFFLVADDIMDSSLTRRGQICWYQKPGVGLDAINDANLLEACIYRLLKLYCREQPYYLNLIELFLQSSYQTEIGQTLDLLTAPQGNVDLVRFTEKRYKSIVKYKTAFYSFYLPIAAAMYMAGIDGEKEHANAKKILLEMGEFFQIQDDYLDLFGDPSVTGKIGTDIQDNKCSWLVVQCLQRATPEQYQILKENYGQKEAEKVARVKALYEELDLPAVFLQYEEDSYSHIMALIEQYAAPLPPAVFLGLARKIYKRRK

## CC(=C\C(=O)O)/C=C(\C)C[C@H](C)CCCC[C@H]1OC(=O)[C@@H]1CO [Hymeglusin, 11-[3R-(hydroxymethyl)-4-oxo-2R-oxetanyl]-3,5,7R-trimethyl-2E,4E-undecadienoic acid, reference compound]
[1]; 100 μg, intramuscular, fourteen days after immunization
  IgG antibody titer vs PBS control: significantly higher titers

## O=P(O)(O)C(O)(Cn1cnc2cc(OCl)ccc21)P(=O)(O)O [II-7]
[2]
  IC50: 0.69 µM
[3]
  IC50: 0.82 µM
[4]; [5]
  IC50: 0.16 µM

## O=P([O-])([O-])C(CCCc1cccc(Oc2ccccc2)c1)S(=O)(=O)[O-].[K+].[K+].[K+] (stereo not shown) [TH-Z66, reference compound]
[1]; 7 days after immunization
  IgG antibody titer vs control group: lower than those in mice in the control group
[1]; SQS inhibitor
  adjuvant effect: does not have an adjuvant effect
[1]; SQS inhibitor 100 μg with OVA, sole
  IgG and IgM antibody titers vs PBS control: did not differ significantly

## COc1ccc2c(c1)ncn2CC(O)(P(=O)(O)O)P(=O)(O)O [TH-Z79]
MDA-MB-231 cells
  IC50: 50900 nM
[2]
  IC50: 0.96 µM
[3]
  IC50: 0.61 µM
[4]; [5]
  IC50: 0.1 to 0.3 µM
[4]; [6]
  IC50: 0.1 to 0.3 µM

## CCCCCCOc1ccn2c(CC(O)(P(=O)(O)O)P(=O)(O)O)cnc2c1 [TH-Z97, (1-hydroxy-2-(7-n-hexyloxyimidazo[1,2-a]pyridin-3-yl)ethane-1,1-diyl)bisphosphonic acid]
[1]; Day 7 and Day 14, OVA
  IgG antibody titer vs PBS control: significantly higher titers
[4]
  IC50: 0.06 µM

## O=P(O)(O)C(Nc1cc(OCc2ccccc2)ccn1)P(=O)(O)O [TH-Z106]
[4]; [7]
  IC50: 0.108 µM

## O=P(O)(O)C(Nc1cc(-n2cc3c(n2)CCCC3)ccn1)P(=O)(O)O [TH-Z108]
[4]; [7]
  IC50: 0.112 µM

## NC(=O)c1cc(COc2ccnc(NC(P(=O)(O)O)P(=O)(O)O)c2)ccn1 [TH-Z109]
[4]; [7]
  IC50: 0.643 µM

## CCOc1ccc2c(c1)ncn2CC(O)(P(=O)(O)O)P(=O)(O)O [TH-Z148]
MDA-MB-231 cells
  IC50: 7300 nM
[2]
  IC50: 1.86 µM
[3]
  IC50: 0.56 µM
[4]; [5]
  IC50: 0.068 µM
[4]; [6]
  IC50: 0.068 µM

## CCCOc1ccc2c(c1)ncn2CC(O)(P(=O)(O)O)P(=O)(O)O [TH-Z149]
MDA-MB-231 cells
  IC50: 36100 nM
[2]
  IC50: 0.92 µM
[3]
  IC50: 0.47 µM
[4]; [5]
  IC50: 0.27 µM
[4]; [6]
  IC50: 0.27 µM

## CCCCOc1ccc2c(c1)ncn2CC(O)(P(=O)(O)O)P(=O)(O)O [TH-Z150]
MDA-MB-231 cells
  IC50: 128000 nM
[2]
  IC50: 0.78 µM
[3]
  IC50: 0.28 µM
[4]; [5]
  IC50: 0.14 µM
[4]; [6]
  IC50: 0.14 µM

## CCCCCCCCCCCCOc1ccc2c(c1)ncn2CC(O)(P(=O)(O)O)P(=O)(O)O [TH-Z154]
[2]
  IC50: 0.75 µM
[3]
  IC50: 5.16 µM
[4]; [5]
  IC50: > 5 µM
[4]; [6]
  IC50: > 5 µM

## CC(C)n1c(/C=C/C(O)CC(O)CC(=O)O)c(-c2ccc(F)cc2)c2ccccc21 (stereo not shown) [fluvastatin, reference compound]
[1]
  IgM and IgG antibody titers vs PBS or DMSO control: significantly higher titers

## CC[C@H](C)C(=O)O[C@H]1C[C@@H](C)C=C2C=C[C@H](C)[C@H](CC[C@@H]3C[C@@H](O)CC(=O)O3)[C@H]21 [lovastatin, reference compound]
[1]
  adjuvant effect among statin drugs: most significant adjuvant effects
  IgM and IgG antibody titers vs PBS or DMSO control: significantly higher titers

## CC[C@H](C)C(=O)O[C@H]1CCC=C2C=C[C@H](C)[C@H](CC[C@@H]3C[C@@H](O)CC(=O)O3)[C@H]21 [mevastatin, reference compound]
[1]
  adjuvant effect among statin drugs: most significant adjuvant effects
  IgM and IgG antibody titers vs PBS or DMSO control: significantly higher titers

## O=C(O)C[C@H](O)C[C@H](O)/C=C/c1c(C2CC2)nc2ccccc2c1-c1ccc(F)cc1 [pitavastatin, reference compound]
[1]
  IgM and IgG antibody titers vs PBS or DMSO control: significantly higher titers

## CC(C)c1nc(N(C)S(C)(=O)=O)nc(-c2ccc(F)cc2)c1/C=C/[C@@H](O)C[C@@H](O)CC(=O)O [rosuvastatin, reference compound]
[1]
  IgM and IgG antibody titers vs PBS or DMSO control: significantly higher titers
